In data set [1] the test system is Raji. Description: Inhibition of TPA-induced EBV-early antigen activation in human Raji cells at 10 molar ratio after 48 hrs relative to TPA; values are per cent of control. Conditions: human gammaherpesvirus 4.
Data set [2] deals with Raji. Kind of data set: Inhibition of TPA-induced EBV-early antigen activation in human Raji cells at 500 molar ratio after 48 hrs relative to TPA; values are per cent of control. Conditions: human gammaherpesvirus 4.
In data set [3] the test system is Raji. Kind of data set: Inhibition of TPA-induced EBV-early antigen activation in human Raji cells at 100 molar ratio after 48 hrs relative to TPA; values are per cent of control. The note with it: human gammaherpesvirus 4.
The test system of data set [4] is Raji. Description: Inhibition of TPA-induced EBV-early antigen activation in human Raji cells at 1000 molar ratio after 48 hrs relative to TPA; values are per cent of control. The note with it: human gammaherpesvirus 4.
Data set [5] in a line: Cytotoxicity against human Raji cells assessed as cell viability at 1000 molar ratio after 48 hrs by trypan blue assay. Conditions: read-out: Activity. In kind it is cell-based.
Data set [6] deals with Mus musculus. Description: Antiinflammatory activity against ICR mouse assessed as inhibition of TPA-induced ear edema compound administered topically preincubated 30 mins before TPA challenge. In kind it is functional.
The test system of data set [7] is Mus musculus. Kind of data set: Antiinflammatory activity against ICR mouse assessed as inhibition ratio of TPA-induced ear edema at 1 mg/ear, topically preincubated 30 mins before TPA challenge relative to TPA. In kind it is functional. Also noted: scale not given: the % may be the effect or the level left.

For `CC1=C(/C=C/C(C)=C/C=C/C(C)=C/C=C/C=C(C)/C=C/C=C(C)/C=C/C2=C(C)CCCC2(C)C)C(C)(C)CCC1`, the level, % of control with Raji [1] was 100%; in the data set with Raji [2], 34.2%; in the data set on Raji [3], 82.1%; in the data set on Raji [4], 8.6%.
For `C[C@H](CC[C@@H](O)C(C)(C)O)[C@H]1CC[C@@]2(C)[C@@H]3C[C@@H]4O[C@]45[C@@H](CC[C@H](O[C@@H]4O[C@H](CO)[C@@H](O)[C@H](O)[C@H]4O)C5(C)C)[C@]3(C)C(=O)C[C@]12C` [5ALPHA,6ALPHA-EPOXYCABENOSIDE D], the viability at 48 h, 1000 molar ratio in data set [5] was 60%. For the same compound, the level, % of control with Raji [1] is 95.3%; in the data set on Raji [2], 28.6%; in the data set with Raji [3], 70%; with Raji [4], 0%.
For the compound `CC(C)(O)CCC(=O)[C@@](C)(O)[C@H]1[C@H](O)C[C@@]2(C)[C@@H]3CC=C4[C@@H](C=C(O[C@@H]5O[C@H](CO)[C@@H](O)[C@H](O)[C@H]5O)C(=O)C4(C)C)[C@]3(C)C(=O)C[C@]12C` [BRYOAMARIDE], the viability at 48 h, 1000 molar ratio in data set [5] was determined as 60%. The ID50 in the data set on Mus musculus [6] is 0.7 mg. Also, the Activity with Mus musculus [7] is on record as 51%. Also, the level, % of control was determined as 96% in the data set with Raji [1], 28.7% in the data set with Raji [2], 71.7% with Raji [3] and 0% in the data set on Raji [4].
Regarding `C[C@H](CC[C@@H](O)C(C)(C)O)[C@H]1CC[C@@]2(C)[C@@H]3CC=C4[C@@H](CC[C@H](O)C4(C)C)[C@]3(C)C(=O)C[C@]12C` [BRYODULCOSIGENIN], in data set [5], the viability at 48 h, 1000 molar ratio was determined as 70%. Moreover, the level, % of control was found to be 88.9% with Raji [1], 23.6% with Raji [2], 69.3% with Raji [3] and 0% with Raji [4].
On to `C[C@H](CC[C@@H](O)C(C)(C)O[C@@H]1O[C@H](CO)[C@@H](O)[C@H](O)[C@H]1O)[C@H]1CC[C@@]2(C)[C@@H]3CC=C4[C@@H](CC[C@H](O)C4(C)C)[C@]3(C)C(=O)C[C@]12C` [BRYONIOSIDE A], for which the viability at 48 h, 1000 molar ratio in data set [5] was determined as 60%. Further, the level, % of control in the data set with Raji [1] was 100%; in the data set on Raji [2], 30.4%; in the data set on Raji [3] it was 75.1%; in the data set on Raji [4] it was 3.4%.
Turning to `C[C@H](CC[C@@H](O)C(C)(C)O)[C@H]1CC[C@@]2(C)[C@@H]3CC=C4[C@@H](CC[C@H](O[C@@H]5O[C@H](CO)[C@@H](O)[C@H](O)[C@H]5O[C@@H]5O[C@@H](C)[C@H](O)[C@@H](O)[C@H]5O)C4(C)C)[C@]3(C)C(=O)C[C@]12C` [BRYONIOSIDE B], in data set [5], the viability at 48 h, 1000 molar ratio amounted to 60%. Moreover, the ID50 with Mus musculus [6] was found to be 0.2 mg. Also, in the data set with Mus musculus [7], the Activity was 94%. For the same compound, the level, % of control in the data set on Raji [1] amounted to 97.4%; in the data set on Raji [2] it was 29.9%; in the data set with Raji [3], 72.7%; in the data set on Raji [4], 0%.
For `CC(=O)O[C@@H]1[C@@H](O)[C@@H](O)[C@H](O[C@H]2[C@H](O[C@H]3CC[C@@H]4C(=CC[C@@H]5[C@@]4(C)C(=O)C[C@]4(C)[C@@H]([C@H](C)CC[C@@H](O)C(C)(C)O)CC[C@@]54C)C3(C)C)O[C@H](CO)[C@@H](O)[C@@H]2O)O[C@H]1C` [BRYONIOSIDE C], the viability at 48 h, 1000 molar ratio in data set [5] was 60%. Also, the ID50 in the data set with Mus musculus [6] turned out to be 0.3 mg. For the same compound, in the data set with Mus musculus [7], the Activity stood at 83%. Besides, the level, % of control with Raji [1] was 100%; in the data set on Raji [2] it was 30.2%; with Raji [3], 73.5%; with Raji [4], 0%.
`C[C@H](C(O)CC(O)C(C)(C)O[C@@H]1O[C@H](CO)[C@@H](O)[C@H](O)[C@H]1O)[C@H]1CC[C@@]2(C)[C@@H]3CC=C4[C@@H](CC[C@H](O)C4(C)C)[C@]3(C)C(=O)C[C@]12C` (stereo not given in full) [BRYONIOSIDE E]: the viability at 48 h, 1000 molar ratio in data set [5] turned out to be 60%. Besides, the ID50 in the data set with Mus musculus [6] is listed as 0.2 mg. Besides, the Activity in the data set on Mus musculus [7] is given as 94%. Moreover, the level, % of control in the data set with Raji [1] came out at 100%; in the data set with Raji [2] it was 37%; in the data set on Raji [3], 77.2%; in the data set on Raji [4], 11.6%.
For the compound `C[C@H](CCC(=O)C(C)(C)O)[C@H]1CC[C@@]2(C)[C@@H]3CC=C4[C@@H](CC[C@H](O[C@@H]5O[C@H](CO)[C@@H](O)[C@H](O)[C@H]5O)C4(C)C)[C@]3(C)C(=O)C[C@]12C` [BRYONIOSIDE F], the viability at 48 h, 1000 molar ratio in data set [5] came out at 60%. Moreover, the level, % of control in the data set with Raji [1] was 97.6%; in the data set on Raji [2] it was 29.2%; in the data set on Raji [3] it was 71.4%; in the data set with Raji [4], 0%.
For the compound `C[C@H](CCC(=O)C(C)(C)O)[C@H]1CC[C@@]2(C)[C@@H]3CC=C4[C@@H](CC[C@H](O[C@@H]5O[C@H](CO)[C@@H](O)[C@H](O)[C@H]5O[C@@H]5O[C@@H](C)[C@H](O)[C@@H](O)[C@H]5O)C4(C)C)[C@]3(C)C(=O)C[C@]12C` [BRYONIOSIDE G], in data set [5], the viability at 48 h, 1000 molar ratio stood at 60%. Moreover, the ID50 in the data set on Mus musculus [6] worked out at 0.2 mg. Moreover, the Activity in the data set with Mus musculus [7] is given as 90%. Moreover, the level, % of control in the data set on Raji [1] was 100%; in the data set on Raji [2] it was 30.6%; with Raji [3], 74.2%; in the data set on Raji [4], 0%.
Take `C[C@H](CCC(=O)C(C)(C)O)[C@H]1CC[C@@]2(C)[C@@H]3CC=C4[C@@H](CC[C@H](O)C4(C)C)[C@]3(C)C(=O)C[C@]12C` [BRYOSIGENIN]: the viability at 48 h, 1000 molar ratio in data set [5] was determined as 70%. The level, % of control amounted to 92.7% in the data set on Raji [1], 28.9% with Raji [2], 73.5% with Raji [3] and 0% in the data set with Raji [4].
With `C[C@H](CC[C@@H](O)C(C)(C)O)[C@H]1CC[C@@]2(C)[C@@H]3CC=C4[C@@H](CC[C@H](O[C@@H]5O[C@H](CO)[C@@H](O)[C@H](O)[C@H]5O)C4(C)C)[C@]3(C)C(=O)C[C@]12C` [CABENOSIDE D], the viability at 48 h, 1000 molar ratio in data set [5] stood at 60%. Further, in the data set with Mus musculus [6], the ID50 was 0.6 mg. The Activity in the data set on Mus musculus [7] is listed as 66%. For the same compound, the level, % of control in the data set with Raji [1] amounted to 94.1%; with Raji [2], 26.1%; in the data set with Raji [3], 69.3%; in the data set with Raji [4], 0%.
In the case of `COc1ccc2c(c1)c(CC(=O)O)c(C)n2C(=O)c1ccc(Cl)cc1` [INDOMETHACIN], in the data set on Mus musculus [6], the ID50 is 0.3 mg. The Activity in the data set with Mus musculus [7] is 96%.
In the case of `O=c1c(O)c(-c2ccc(O)c(O)c2)oc2cc(O)cc(O)c12` [QUERCETIN], the ID50 in the data set with Mus musculus [6] was found to be 1.6 mg. Moreover, the Activity in the data set with Mus musculus [7] is on record as 40%.

Source of the values: ChEMBL document CHEMBL1159318, “Anti-inflammatory and anti-tumor-promoting effects of cucurbitane glycosides from the roots of Bryonia dioica” (J Nat Prod, 2002).
